Results on six molecules are retold here after patent US12441811B2, “Compositions and methods for treating serpin B13 disorders” (REGENTS OF THE UNIVERSITY OF MINNESOTA, priority 2019, dated 2025).

In assay [1] the test system is Ngn3+ endocrine progenitor cells. Nature of the assay: Ngn3+ cells in embryonic pancreas explants (E12.5) cultured in vitro. Type of assay: cell-based, mouse. The note with it: for number of Ngn3+ endocrine progenitor cells: E12.5 explants, recombinant protein 10 μg/mL, 72 hours vs buffer. Here is the method:
Isolation and culture of embryonic pancreas explants. The isolation and culture of embryonic pancreas explants was performed as described elsewhere, with minor modifications.
Processing of pancreatic tissue for immunofluorescence microscopy. The pancreatic tissues were isolated and fixed either overnight (adult pancreases), or for one hour (embryonic pancreas explants), in 2% PFA (pH 7.4), followed by a two-step saturation process: first in a 30% sucrose solution in PBS and then in optimal cutting temperature (OCT) compound. After complete saturation, the tissues were imbedded in OCT using Cryomold and then snap frozen in an ethanol/dry ice bath. The OCT blocks were serially cut through the entire organ to obtain representative sections every 600 μm (6 to 8 sections per adult pancreas), 50 μm (12 to 14 sections per E16.5 embryonic pancreas), 35 μm (10 to 12 sections per E14.5 embryonic pancreas), or 15 μm (10 to 12 sections per E12.5 embryonic pancreas cultured for 1 to 3 days). For the embryonic linage tracing experiments, three largest sections were taken for the analysis. For all other experiments involving immunofluorescence microscopy, all obtained sections were analyzed. […]
The sections from the pancreases of embryos at age E14.5 and E16.5, and newborn pups (OP), were stained with anti-Ngn3 antibody to determine the total number of endocrine progenitors cells for all sections per explant combined (FIG. 9G, FIG. 17A). Alternatively, the sections representing the pancreases of embryos at age E12.5 (which are considerably smaller) were stained with both anti-Ngn3 and anti-CK19 antibodies to determine the fraction of CK19-positive area that was occupied by Ngn3− positive staining (FIGS. 9D, 10A, 10C, 12D, 12G, 12J and FIGS. 15A, 20B). The following formula was used to adjust for any differences in the pancreas size: (Ngn3^+ cell number/μm^2 of CK19^+ cells)×10^5.
Image analysis. Embryonic images were processed with a plugin-Trainable Weka Segmentation v3.2.28 (Hamilton, New Zealand) for ImageJ v.1.52jv software. To classify and quantify the images in unbiased fashion, we defined the following four classes for the analysis: Ngn3^+ cells, the clusters of cytokeratin 19^+ cells, the negatively stained areas, and background (e.g., the area outside of tissue sample). Alternatively, the Visiopharm version 6.0 software (Visiopharm, Hoerholm, Denmark) with Author module was used to create applications to outline Ngn3^+ cells or double positive cells expressing YFP and insulin using preprocessing and postprocessing steps, when necessary. In addition, the Engine module of the Visiophram module was used to execute created applications and unbiasedly analyze the images. For the unbiased quantitative analysis of β-cells and islets in the whole pancreatic sections, Visiopharm Author module was trained to recognize insulin-positive β-cell clusters with diameter greater than 50 μm as well as negatively stained section area. In all studies involving microscopy the treatment assignments were blinded to investigators who performed data analysis.

Assay [2] concerns Notch1 receptor. Nature of the assay: Examination of Notch1 receptor in embryonic pancreas (Western blot, flow cytometry, qPCR). In kind it is cell-based, mouse. Here is the method:
Staining for flow cytometry. BD LSRFortessa X-20, LSR-II and FACSCanto-II were used for FACS analysis. Positive populations of cells were gated and counted using FlowJo ver.10 software. For the islet cells isolated from adult mice, intracellular staining to detect glucagon and insulin was used to count single-positive as well as double-negative cells. In the cells isolated from embryonic pancreas explants, intracellular staining was performed to detect Ngn3, CK19, and active Notch, and extracellular staining was used to detect the extracellular Notch domain, EpCAM, CD31 and CD45.
Western blotting. Pancreatic tissues were processed from E16.5 embryos as single samples and directly used for lysis. Embryonic pancreas explants from E12.5 embryos were cultured in vitro with anti-serpinB13 mAb (or control Ab) for 24 or 48 hours, then, three explant cultures were combined and lysed. The samples were washed two times in ice-cold PBS and lysed with gentle pipetting for 10 minutes with additional tap-vortexing for 15 minutes in RIPA buffer containing Halt protease inhibitors (cat. no. 1862209, Thermo Fisher Scientific). Equal amounts of protein in each sample were run under reducing conditions on Bis-Tris BOLT gradient gel (4-12%) or NUPAGE Tris-acetate gradient gels (4-12%) (both from Thermo Fisher Scientific), and transferred onto […] nitrocellulose or activated PVDF membranes. The membranes were blocked with 5% skim milk and stained with primary and secondary antibodies, as indicated. The Western blots were developed with SuperSignal West Pico Chemiluminescent Substrate or West Femto Maximum Sensitivity Substrate (cat. nos. […] and […], respectively; both from Thermo Scientific), and scanned using the ChemiDoc™ MP Imaging System (Bio-Rad, Hercules, […], USA).
Quantitative real-time PCR. Total RNA from embryonic pancreases was extracted using the RNeasy UCP Micro kit (cat. no. 73934; Qiagen, Hilden, Germany) to measure expression of the Notch1 gene. One hundred to […] of the total RNA per group was reverse transcribed to cDNA using the iScript cDNA Synthesis Kit (cat. no. 1708891; Bio-Rad). Quantitative PCR assays were performed on an Applied Biosystems QuantStudio 3 real-time PCR system using cDNA and the Kapa Sybr Fast reagent (cat. no. 0795959100; Roche). Actin-R was used as a reference gene. The primer sequence for Notch1 was as follows: forward—5′[…]3′ and reverse—5′ […]3′.
(A western blot detects proteins with antibodies after separation by electrophoresis.)

Take “recombinant CatL: recombinant mouse cathepsin L”: the Ngn3 cells entry in assay [1] (recombinant mouse cathepsin L 2.5 μg/mL for 4 hours vs buffer) is reported as “induced additional”. Moreover, the “cleavage of the extracellular domain of Notch1” value in assay [2] (recombinant CatL 2.5 μg/mL for last 4 hours of 48-hour incubation) is “cleaved”.

For the molecule `CC(C)C[C@H](NC(=O)[C@H]1O[C@@H]1C(=O)O)C(=O)NCCCCN=C(N)N` [Clone E64, reference compound], in assay [1] (E12.5 WT explants, E64 10 μM, 48 hours vs DMSO), the “size of the Ngn3+ cell population” value was “significantly reduced”. Further, the “mAb-induced Notch1 degradation fragments in presence of protease inhibitor” value in assay [2] (E64 1 μM with antibody for 48 hours) is given as “almost completely prevented”. “chicken ovalbumin: non-inhibitory structural homolog and founding member of the clade B serpin family, used as control [reference compound]”: the “number of Ngn3+ endocrine progenitor cells” value (shortened to “number”) in assay [1] is on record as “not”.

B1: recombinant serpinB13 protein: recombinant serpinB13 (mouse and human not distinguished at this place) (protein)
chain: MDSLGAVSTRLGFDLFKELKKTNDGNIFFSPVGILTAIGMVLLGTRGATASQLEEVFHSEKETKSSRIKAEEKEVIENTEAVHQQFQKFLTEISKLTNDYELNITNRLFGEKTYLFLQKYLDYVEKYYHASLEPVDFVNAADESRKKINSWVESKTNEKIKDLFPDGSISSSTKLVLVNMVYFKGQWDREFKKENTKEEKFWMNKSTSKSVQMMTQSHSFSFTFLEDLQAKILGIPYKNNDLSMFVLLPNDIDGLEKIIDKISPEKLVEWTSPGHMEERKVNLHLPRFEVEDGYDLEAVLAAMGMGDAFSEHKADYSGMSSGSGLYAQKFLHSSFVAVTEEGTEAAAATGIGFTVTSAPGHENVHCNHPFLFFIRHNESNSILFFGRFSSP
Regarding B1, in assay [1], the “number” value was “downregulate”.

B2: human recombinant serpinB13: recombinant human serpinB13 expressed in baculovirus (protein)
chain: MDSLGAVSTRLGFDLFKELKKTNDGNIFFSPVGILTAIGMVLLGTRGATASQLEEVFHSEKETKSSRIKAEEKEVIENTEAVHQQFQKFLTEISKLTNDYELNITNRLFGEKTYLFLQKYLDYVEKYYHASLEPVDFVNAADESRKKINSWVESKTNEKIKDLFPDGSISSSTKLVLVNMVYFKGQWDREFKKENTKEEKFWMNKSTSKSVQMMTQSHSFSFTFLEDLQAKILGIPYKNNDLSMFVLLPNDIDGLEKIIDKISPEKLVEWTSPGHMEERKVNLHLPRFEVEDGYDLEAVLAAMGMGDAFSEHKADYSGMSSGSGLYAQKFLHSSFVAVTEEGTEAAAATGIGFTVTSAPGHENVHCNHPFLFFIRHNESNSILFFGRFSSP
Take B2: the “number” value in assay [1] is on record as “significant drop”.

B3: mouse recombinant serpinB13: recombinant serpinB13 of mouse (protein)
chain: MDSLGTAATQFLFDLFKELNKTNDGNVFFSPVGISTAIGMIILGTRGATASELQKVLYTEQGTESSRIKSEEEEIEKREEIHHQLQMLLTEISKFSNDYDLIISNRLFGEKTYLFLQKYIDYVEKYYHASLEPVDFVNAADESRKKINSWVESQTNVKVKDLFPEGSLNSSTKLVLINTVYFKGLWDREFKKEHTKEEDFWLNKNLSKPVQMMALCSSFNFTFLEDLQAKIVGIPYKNNDISMFVLLPNDIDGLEKIMDKMSPEKLVEWTSPGHLEQRRVDLRLPRLQVEETYDLEPVLEAVGIHSAFSEHADYSGMSARSGLHAQNFLHRSFLVVTEEGVEATAGTGVGLKVSSAASCELVHCNHPFLFFIRHRESDSILFFGKFSSP
Turning to B3, the “number” value in assay [1] is reported as “significant drop”.
